# Columns and labels:
# [1] = system: accumulation of sorbitol in sciatic nerve; experiment: Inhibiting the accumulation of sorbitol in sciatic nerve of streptozotocin diabetic rats; type: in vivo, Sprague-Dawley male rats; conditions: twice a day for 5 days
# Description: Groups of 6 to 8-weeks-old Sprague-Dawley male rats (4 aminals per group) were fasted for 18 hours and streptozotocin was injected through the tail vein in a dose of 60 mg/kg to thus obtain diabetic rats. Immediately after the administration of the streptozotocin, each compound to be tested was orally administered to these rats in the form of a suspension at a dose of 10 mg/kg, 30 mg/kg and 50 mg/kg (each was suspended in a 0.5% sodium carboxymethyl cellulose solution) twice a day (9 o'clock in the morning and 5 o'clock in the afternoon) for 5 days. During the test, the rats took diet and drank water freely. 4 Hours after the final administration of the drug in the 5th day's morning (9 o'clock in the morning), the rats were sacrificed and then the sciatic nerve thereof was removed to determine the amount of sorbitol accumulated therein.
# The results are expressed in the percentage obtained while the value obtained on the control to which any drug was not administered is defined to be 100.
# aldose reductase = target: T1, aldose reductase (Rattus norvegicus, UniProt P07943); experiment: Aldose reductase inhibitory effect (enzyme from crystalline lenses, DL-glyceraldehyde substrate); type: biochemical, rat (male SD); conditions: 10 mM DL-glyceraldehyde, pH 6.2, 30° C.
# T1 construct: Then their crystalline lenses were immediately removed and stored at -80° C; The lenses were homogenized; from tissue; host or cells: crystalline lenses of six-week-old male SD rats
# Description: Six-weeks-old male SD rates were anesthetized with ether and killed. Then their crystalline lenses were immediately removed and stored at -80° C. […] All operations were conducted at 4° C. and the enzyme solution was stored at -80° C.
# More specifically, 0.1 ml of DL glyceraldehyde (final concentration: 10 mM) was added to 0.9 ml of 100 mM sodium potassium phosphate buffer (pH 6.2) which contained lithium sulfate (final concentration: 400 mM), reduced nicotinamide adenine dinucleotide phosphate (final concentration: 0.15 mM), the enzyme solution, and the compound to be evaluated (final concentration: 10^-6 M, 10^-7 M or […]), and then the reaction was conducted at 30° C. for 5 minutes. During the reaction, the change in the absorbance at 340 nm with time was monitored. The maximum reducing rate of the absorbance (U) during the reaction was determined. By subtracting, from this value, the maximum reducing rate (Uo) at 340 nm of the reaction solution before the addition of the substrate (DL-glyceraldehyde), the reaction rate (V=U-Uo) was calculated as a true reaction rate in the presence of the compound to be tested.
# The same procedure was repeated except for the absence of the compound to be tested. A true reaction rate (Vo) in case the enzyme was not inhibited was calculated (Vo =U'-Uo '). The aldose reductase inhibitory activity of the test compounds was determined according to the following formula:
# Rate of Inhibition (%)=(Vo -V)/Vo ×100
Compound,Rate of Inhibition of Sorbitol Accumulation ([1]; 10 mg/kg oral) [%],Rate of Inhibition of Sorbitol Accumulation ([1]; 30 mg/kg oral) [%],IC50 (aldose reductase) [nM]
"O=C(O)Cn1nnnc1-c1cccs1 [Example 2-1, [5-(2-thienyl)tetrazol-1-yl] acetic acid]",68,89,16
"O=C(O)Cn1nnnc1-c1ccoc1 [Example 2-7, [5-(3-furyl)tetrazol-1-yl] acetic acid]",46,77,30

# Reference: USRE35321E, “Tetrazoleacetic acid derivatives having aldose reductase inhibitory activity” (Wakamoto Pharmaceutical Co., Ltd., priority 1990, dated 1996)
